Experimental data as given in patent US4427671A, “Steroids esterified in position 17 and thioesterified in position 21, a process for preparing them and their use as medicaments” (priority 1981, dated 1984).

Legend:
Type in all cases: in vivo, male Sprague-Dawley I.O.P.S. rats
granuloma = assay: Local anti-inflammatory activity: inhibition of granuloma formation around implanted cotton wool pellet; conditions: Table 1; for R 1 (relative local anti-inflammatory activity compared with betamethasone 17,21-dipropionate): D.P.B. = 1, calculated from ED50; for ED50 (local anti-inflammatory activity, 50% inhibition in granuloma weight): rat, cotton pellet granuloma, six days after implantation
Procedure: A. Winter and C. C. Porter (J. Am. Pharm. Ass. 1957, 46, 9, pages 515-519).
(§1) The principle of the test consists in implanting a pellet of cotton wool in the dorsal subcutaneous tissue of the animal. The corticoids to be studied are added to the pellet so that the following tests can be carried out:
(1) Determination of the local anti-inflammatory activity
The presence of products within the pellet may inhibit or prevent the formation of a granuloma.
(§2) The animals are divided into random homogeneous groups of 10 male Sprague-Dawley I.O.P.S. rats with a body weight of between 100 and 120 grams.
(§3) The pellets to be implanted weigh from 35 to 40 mg and are prepared from balls of dental cotton wool. Before being inserted, each pellet is weighed and impregnated with the precise quantity of the product which is to be studied, dissolved in 0.2 ml of chloroform. The chloroform is eliminated by evaporation over a period of 24 hours at ambient temperature.
(§4) Before implantation, each pellet is impregnated with a solution of antibiotics:
Streptomycin 0.1 gram/ml.
(§5) The animals are anaesthetised with ether, and then two pellets are implanted in each animal in the dorsal subcutaneous tissue, on each side of the median line:
(§6) on the left, the pellet containing the product to be tested (treated animal) or the carrier only (control animal);
(§7) on the right, the pellet containing the carrier only.
(§8) The animals are given normal food and are sacrificed six days after the pellets have been implanted.
(1) Local anti-inflammatory activity
The pellets surrounded by granulomatous tissue are carefully removed and weighed, and then dried until a constant weight is obtained.
The relative activity of the test products compared with betamethasone 17,21-dipropionate is calculated according to the following equation: [formula]

thymus = assay: Systemic activity after local administration: effect on the weight of the thymus
Procedure: (§9) The pharmacological activity of the products described in the invention was tested in the rat using a technique similar to that described by C. A. Winter and C. C. Porter (J. Am. Pharm. Ass. 1957, 46, 9, pages 515-519).
as §1
(§10) (2) Determination of the systemic activity of the products after local administration
(§11) Local application of the corticoids may result, inter alia, in:
(a) a reduction in the defence systems of the organism, the most notable sign of which is a reduction in the weight of the animals' thymuses.
as §2, §3, §4, §5, §6, §7, §8
(2) Determination of the systemic effect
The thymuses are taken from the same animals and weighed. Using the same type of calculation, an ED 50 is determined, which corresponds to the dosage of product resulting in a 50% decrease in weight of the thymuses, compared with the control animals.

[1] = Systemic activity after local administration: effect on weight gain
Procedure: as §9, §1, §10, §11
(b) Disruption of the protein metabolism which causes tissue fusion, resulting in an inhibition of the weight increase in animals.
as §2, §3, §4, §5, §6, §7, §8
(b) Effect on weight gain
The weight gain over six days is determined on the animals before they are sacrificed.
The activity of the products was expressed as the percentage inhibition in the weight gain of the treated animals compared with the weight gain in the control animals.
The ED 30 which corresponds to a 30% inhibition in the weight gain was determined.

[2] = D.P.B. = 1, calculated from ED50, Table 2
[3] = rat, local application, six days, Table 2
[4] = D.P.B. = 1, calculated from ED30, Table 3
[5] = rat, local application, weight gain over six days, Table 3

R 2 (relative effect on thymus weight compared with D.P.B.) (thymus; [2]) | ED50 (50% decrease in weight of the thymuses) (thymus; [3]) | R 3 (relative activity on weight gain compared with D.P.B.) [1, 4] | ED30 (30% inhibition in the weight gain) [1, 5] | Compound | R 1 (relative local anti-inflammatory activity compared with betamethasone 17,21-dipropionate) (granuloma) | ED50 (local anti-inflammatory activity, 50% inhibition in granuloma weight) (granuloma) | ED50 (50% decrease in weight of the thymuses) (thymus; rat, in vivo) | R 2 (relative effect on thymus weight compared with D.P.B.) (thymus; rat, in vivo, 8640 min) | ED30 (30% inhibition in the weight gain) ([1]; rat, in vivo, 8640 min) | R 3 (relative activity on weight gain compared with D.P.B.) ([1]; rat, in vivo, 8640 min) | ED50 (50% decrease in weight of the thymuses) (thymus; rat, in vivo, 8640 min)
0.27 | 3.1 mg/pellet | 0.16 | 5 mg/pellet | CCC(=O)OCC(=O)[C@@]1(OC(=O)CC)[C@@H](C)C[C@H]2[C@@H]3CCC4=CC(=O)C=C[C@]4(C)[C@@]3(Cl)[C@@H](O)C[C@@]21C [Beclomethasone dipropionate, beclomethasone 17,21-dipropionate, reference compound] | < 0.2 | > 5 mg/pellet |  |  |  |  | 
1 | 0,86 mg/pellet | 1 | > 0.8 mg/pellet | CCC(=O)OCC(=O)C1(OC(=O)CC)C(C)CC2C3CCC4=CC(=O)C=CC4(C)C3(F)C(O)CC21C (stereo not drawn) [D.P.B., betamethasone 17,21-dipropionate, reference compound] | 1 | 1.610 mg/pellet |  |  |  |  | 
 |  |  |  | CCCCC(=O)O[C@]1(C(=O)CSC(=O)CCCC)CC[C@H]2[C@@H]3CCC4=CC(=O)CC[C@]4(C)[C@H]3[C@@H](O)C[C@@]21C [Ex. 1, 11β-hydroxy-pregn-4-ene-3,20-dione (or hydrocortisone) 17-valerate, 21-thiovalerate] | > 8 | < 0.200 mg/pellet | zero to 3.2 | < 0.27 | > 3.2 mg/pellet | < 0.25 | 
 |  |  |  | CCCCC(=O)O[C@]1(C(=O)CSC(=O)C(C)(C)C)CC[C@H]2[C@@H]3CCC4=CC(=O)CC[C@]4(C)[C@H]3[C@@H](O)C[C@@]21C [Ex. 2, 11β-hydroxy-pregn-4-ene-3,20-dione (or hydrocortisone) 17-valerate, 21-thiopivalate] | 0.75 | 2.140 mg/pellet | zero to 3.4 | < 0.25 | > 3.4 mg/pellet | < 0.24 | 
 |  |  |  | CCCC(=O)O[C@]1(C(=O)CSC(C)=O)CC[C@H]2[C@@H]3CCC4=CC(=O)C=C[C@]4(C)[C@H]3C(=O)C[C@@]21C [Ex. 3, Pregna-1,4-diene-3,11,20-trione (or prednisone) 17-butyrate, 21-thioacetate] | 2.7 | 0.600 mg/pellet |  | < 0.17 | > 5 mg/pellet | < 0.16 | > 5 mg/pellet
 |  |  |  | CC(=O)SCC(=O)[C@@]1(OC(=O)c2ccccc2)CC[C@H]2[C@@H]3C[C@H](C)C4=CC(=O)C=C[C@]4(C)[C@H]3[C@@H](O)C[C@@]21C [Ex. 4, 11β-hydroxy-6α-methyl-pregna-1,4-diene-3,20-dione (or 6β-methylprednisolone) 17-benzoate, 21-thioacetate] | 29 | 0.056 mg/pellet |  | < 0.17 | > 5 mg/pellet | < 0.16 | > 5 mg/pellet
